One molecule from US8470844B2, “Imidazoacridinone derivative compounds and methods for their use” (Technion Research & Development Foundation Limited, priority 2008, dated 2013) can be followed below.

One data set has as its system A549 cells. Description: MTT cytotoxicity assay, parental A549 cells. Type of data set: cell-based, Human. As to conditions: 96 hours exposure, mean of at least three experiments. As for the experimental part:
(§1) Tissue culture: Human non-small cell lung cancer A549 cells and T-cell leukemia CCRF-CEM cells were grown under monolayer conditions or up to a maximal density of 10^6 cells/ml (for CCRF-CEM cells) in RPMI-1640 medium (GIBCO) supplemented with 10% fetal calf serum, 2 mM glutamine, 100 μg/ml penicillin and 100 μg/ml streptomycin (Biological Industries, Beth-Haemek, Israel) in a humid atmosphere of 5% CO2. Drug resistant A549/K1.5 cells with ABCG2 overexpression were maintained under a continuous drug selection with 1.5 μM C-1305. Bram, E. E., et al., (2007) Biochem Pharmacol 74(1), 41-53.
(§2) Cytotoxicity and growth inhibition assays: The cytotoxic activity of the various IA antitumor agents was determined using the MTT assay. Poindessous, V., et al., (2003) Clin Cancer Res 9(7), 2817-2825.
(§3) Exponentially growing cells were seeded at 5×10^3 cells/well in 24-well plates (2 ml medium/well). Following an overnight incubation, cells were exposed to different drug concentrations for 96 hours. Cellular viability was determined by adding the tetrazolium salt MTT for 4 h at 37° C., followed by solubilization of the intracellular precipitated formazan in 1 ml DMSO and absorbance was determined by a microplate reader (ASYS Hitech GmbH, Austria). Drug concentrations required to inhibit cell growth by 50% (IC50) compared with untreated controls were determined from the curves of survival versus drug concentrations using the SlideWrite software (Advanced Graphics Software, Inc., Encinitas, Calif.). Resistance folds (RF) were calculated by dividing the IC50 value of the resistant cells by that of the parental cell line. Values presented are means of at least three independent experiments, each performed in duplicates.
(In general: Tetrazolium dyes change colour on reduction, which living cells bring about.)

The subject of the next data set is A549/K1.5 cells. Put plainly: MTT cytotoxicity assay, ABCG2-overexpressing A549/K1.5 cells. The class given is cell-based, Human. As to conditions: for resistance of A549/K1.5 cells (in words): versus parental A549 cells. As for the experimental part:
as §1, §2, §3
Quantitative evaluation of ABCG2 interaction with various IA derivatives: The extent of ABCG2-mediated resistance was expressed using the Resistance Fold (RF) parameter representing the ratio between the IC50 values of the resistant cells and parental cells. Likewise, ABCG2-dependent differential accumulation of IAs in ABCG2-overexpressing A549/K1.5 cells was compared using the ratio of IA accumulation in the presence or absence of the potent ABCG2 inhibitor FTC. This was termed the FTC-dependent Accumulation Fold (AF) and was determined for each IA at a constant IA concentration of 10 μM.

The target in another data set is T1, ABCG2 (A549/K1.5 cells) (Homo sapiens, UniProt Q9UNQ0).
T1 construct: Drug resistant A549/K1.5 cells with ABCG2 overexpression were maintained under a continuous drug selection with 1.5 μM C-1305; endogenous in cells; host or cells: A549/K1.5 (C-1305-selected subline of human non-small cell lung cancer A549)
T1 sequence (Q9UNQ0 1-655): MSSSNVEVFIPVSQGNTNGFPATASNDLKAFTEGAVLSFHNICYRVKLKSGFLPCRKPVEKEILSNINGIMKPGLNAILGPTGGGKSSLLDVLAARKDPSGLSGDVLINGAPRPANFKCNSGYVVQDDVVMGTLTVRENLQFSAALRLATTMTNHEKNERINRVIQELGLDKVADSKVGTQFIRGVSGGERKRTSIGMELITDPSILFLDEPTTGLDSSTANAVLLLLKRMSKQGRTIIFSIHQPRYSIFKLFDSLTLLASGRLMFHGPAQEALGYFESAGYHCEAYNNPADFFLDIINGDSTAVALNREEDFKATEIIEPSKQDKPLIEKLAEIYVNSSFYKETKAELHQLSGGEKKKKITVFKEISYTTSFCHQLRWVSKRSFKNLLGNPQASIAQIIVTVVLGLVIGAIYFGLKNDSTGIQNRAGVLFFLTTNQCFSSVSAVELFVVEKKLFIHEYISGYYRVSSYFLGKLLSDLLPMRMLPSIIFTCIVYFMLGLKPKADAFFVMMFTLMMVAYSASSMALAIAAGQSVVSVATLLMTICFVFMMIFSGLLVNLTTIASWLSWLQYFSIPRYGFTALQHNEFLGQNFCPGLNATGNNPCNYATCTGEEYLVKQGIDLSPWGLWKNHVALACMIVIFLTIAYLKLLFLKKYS
Put plainly: Flow cytometric IA accumulation in A549/K1.5 cells with or without fumitremorgin C. Type of data set: cell-based. On the procedure:
In this assay, one ml aliquots of A549/K1.5 or CCRF-CEM cell suspensions (1×10^6 cells/ml) in growth medium containing 20 mM Hepes at pH 7.3 were distributed into 1.5 ml polypropylene Eppendorf test tubes. […] Rabindran, S. […] Alternatively, in time-course experiments, IA derivatives at a constant concentration of 10 μM were added to a CCRF-CEM cell suspension incubated at 37° C., and 1 ml aliquots were removed at variable time points up to 1 hour. Following incubation, test tubes were transferred to ice and centrifuged at 4° C. Cells were then washed twice and re-suspended in ice-cold PBS containing 1% fetal calf serum and kept in the dark at 4° C. until analysis. […] Quantitative evaluation of ABCG2 interaction with various IA derivatives: The extent of ABCG2-mediated resistance was expressed using the Resistance Fold (RF) parameter representing the ratio between the IC50 values of the resistant cells and parental cells.
Background: Flow cytometry measures light scatter and fluorescence of single cells or particles in a stream.

Regarding `CCN(CC)CCNc1ccc2ncn3c4ccc(O)cc4c(=O)c1c23` [C-1311], the IC50 worked out at 0.27 ± 0.012 µM in the data set with A549 cells and 2.34 ± 0.05 µM with A549/K1.5 cells (ABCG2-overexpressing A549/K1.5 cells, 96 hours exposure, MTT). Also, in the data set on A549/K1.5 cells (IC50 of A549/K1.5 cells divided by IC50 of parental A549 cells), the “RF (resistance fold)” value worked out at 8.70. For the same molecule, the “resistance of A549/K1.5 cells (in words)” value in the data set with A549/K1.5 cells is given as “prominent resistance”; in the data set on A549/K1.5 cells (listed as Symadex), “marked drug resistance”. Further, the “ABCG2-mediated extrusion / interaction with ABCG2 (in words)” value on ABCG2 (A549/K1.5 cells) is “extruded by ABCG2-overexpressing lung cancer A549/K1.5 cells”.

By IC50 is commonly meant the concentration at which inhibition is half-maximal.
